# Measured values as given in patent publication US20230348454A1, “COMPOUNDS AS MODULATORS OF BIS-PHOSPHOGLYCERATE MUTASE FOR THE TREATMENT OF SICKLE CELL DISEASE” (Genzyme Corporation, priority 2020, published 2023).
# pEC50, pIC50: −log10 of the molar value. Like-named read-outs stand apart in the source and are kept apart here.
# What was measured:
# [1] = target: T1, human Bisphosphoglycerate mutase (hBPGM) (Homo sapiens, UniProt P07738); assay: BPGM phosphatase assay; type: biochemical
# T1 sequence (P07738 1-259): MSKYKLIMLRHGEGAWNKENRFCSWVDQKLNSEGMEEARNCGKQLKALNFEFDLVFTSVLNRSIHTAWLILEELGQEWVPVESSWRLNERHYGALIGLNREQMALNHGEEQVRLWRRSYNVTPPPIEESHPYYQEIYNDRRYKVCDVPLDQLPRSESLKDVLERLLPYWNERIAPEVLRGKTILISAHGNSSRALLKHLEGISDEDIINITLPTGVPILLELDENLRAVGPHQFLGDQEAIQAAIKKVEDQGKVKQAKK
# Experimental: The following materials were used in this assay: Tris buffer (50 mM Tris, 0.01% Tween 20, pH 7.4); cyclohexylammonium salt of 2,3-BPG (stock solution of 500 mM in ultapure distilled water; human Bisphosphoglycerate mutase (hBPGM; stock solution of 110 μM in Standard Buffer); 3-Phosphoglyceric acid (3-PG; stock solution of 100 mM in ultrapure distilled water); 384-Well Polystyrene Plates (Fisherbrand™, Catalog No.: 12-566-625); BIOMOL GREEN REAGENT (Enzo life sciences, BML-AK111-0250); and 1 mM DMSO stock of exemplary compounds.
# A 3-PG enzyme mix solution (final enzyme concentration 62.5 nM, 3-PG concentration at 50 µM, 14.5 uL) was added to onto a 384-well clear plate. Solutions of the test compounds were then added to the plate and the DMSO content was normalized across the plate. The plate was incubated at RT for 15 min. Next, the substrate 2,3-BPG (5 μL) was added to all the wells, and the plate was sealed and incubated for 24 hr at RT. After incubation, BIOMOL green dye (40 μL) was added to all the wells, the plate was shaken to mix, and the plate was incubated at RT for 20-30 min. Absorbance measurements were recorded at 620 nm.
# [2] = target: T2, hBPGM (Homo sapiens, UniProt P07738); assay: BPGM synthase assay; type: biochemical
# T2 sequence (P07738 1-259): T1 sequence (P07738 1-259)
# Experimental: The following materials were used in this assay: deionized water; Bisphosphoglycerate mutase (BPGM; Standard Buffer: 50 mM Tris, 0.01% Tween 20, pH 7.4); BPGM Reaction Buffer (50 mM Tris, 0.01% Tween 20, 3.23 mM KH2PO4, pH 7.4); dithiothreitol (DTT; Stock solution: 100 mM in Standard Buffer); 384-Well Black Assay Plate (Corning, P/N 3575); DMSO; BPGM Stock Solution (500 nM in BPGM Standard Buffer); Glyceraldehyde 3-phosphate dehydrogenase (GAPDH; Stock Solution: 40 U/mL in 20 mM Tris-HCL Buffer with 20% Glycerol, 1 mM EDTA, 1 mM DTT); Glyceraldehyde 3-phosphate (GAP; Stock Solution: 20 mM in BPGM Standard Buffer); 3-PG Stock Solution (500 μM in BPGM Standard Buffer); Nicotinamide adenine dinucleotide (NAD; Stock Solution: 50 mM in BPGM Standard Buffer); Koningic Acid (1 mM Stock in DMSO); Resazurin Stock Solution (10 mM in DMSO); Diaphorase Stock Solution (40 U/mL in BPGM Standard Buffer); DTT Reaction Buffer (1 mM DTT in BPGM Reaction Buffer); Enzyme Solution (5 nM BPGM, 0.4 U/mL GAPDH in DTT Reaction Buffer); GAPDH Solution (0.4 U/mL GAPDH in DTT Reaction Buffer); Substrate Solution (2 mM NAD, 20 μM 3PG, 800 μM GAP in DTT Reaction Buffer); and Resazurin Solution (5 U/mL Diaphorase, 500 μM Resazurin in BPGM Standard Buffer).
# To the assay plate was added Enzyme Solution (20 uL) to columns 2-22 and 24 of the assay plate. To columns 1 and 23 was added GAPDH Solution (20 uL). A separate compound plate was prepared at the desired concentrations and all wells were normalized with 5% DMSO. The compound plate was incubated for 30 minutes at RT. Next, the substrate solution (20 μL) was dispensed to all reaction wells and the plate was incubated for 60 minutes at RT. Koningic acid (1 μL) was added and the plate was incubated for 10 minutes at RT. During this time period, the NADH fluorescence was read at ex: 360/em: 460. Next, Resazurin Solution (10 μL) was added to all reaction wells and the plate was incubated for 30 minutes at RT. The resorufin fluorescence was then read at ex:544/em:590.
# [3] = Table 6, read-out: huBPGM: phosphatase Enzyme EC50
# [4] = Table 6, read-out: huBPGM: synthase Enzyme IC50
# [5] = Table 4, read-out: hBPGM Phosphatase EC50
# [6] = Table 3, read-out: hBPGM Synthase IC50
"pEC50 [1, 3]","pIC50 [2, 4]","pEC50 [1, 5]","pIC50 [2, 6]",SMILES
7.70,5.47,–,–,Cc1nc(COc2ccccn2)sc1-c1csc(-c2cc3nn[nH]c3c(F)c2F)n1 [Example 176]
6.42,6.37,–,–,Cc1nc(COCC(=O)N2CCCC2)sc1-c1csc(-c2cc(F)c(O)c(F)c2F)n1 [Example 127]
6.00,5.80,–,–,CC(=O)NCc1nc(C)c(-c2csc(-c3cc(F)c(O)c(F)c3F)n2)s1 [Example 96]
7.24,7.27,–,–,Cc1nc(COc2ncccn2)sc1-c1cccc(-c2cc(F)c3[nH]nnc3c2)n1 [Example 141]
< 4.60,5.82,–,–,COC(=O)NCc1nc(C)c(-c2csc(-c3ccc(O)c(C#N)c3F)n2)s1 [Example 173]
7.02,6.74,–,–,COC(=O)NCc1nc(C)c(-c2csc(-c3cc(F)c4[nH]nnc4c3)n2)s1 [Example 214]
6.77,6.85,6.77,–,Cc1nc(COc2ncccn2)sc1-c1cccc(-c2ccc(-c3noc(=O)[nH]3)cc2)n1 [compound 15]
–,–,6.24,6.00,Cc1nc(COc2ncccn2)sc1-c1cccc(-c2ccc3nn[nH]c3c2)n1 [compound 14]
7.22,6.80,–,–,COC(=O)NCc1nc(C)c(-c2csc(-c3ccc(-c4nnn[nH]4)c(O)c3)n2)s1 [Example 213]
< 4.60,6.03,–,–,CC(=O)NCc1nc(C)c(-c2csc(-c3cc(F)c4[nH]nnc4c3)n2)s1 [Example 103]
6.60,6.36,–,–,Cc1nc(COc2ncccn2)sc1-c1cccc(-c2cc(F)c3[nH]nnc3c2)c1 [Example 177]
7.24,6.51,–,–,Cc1nc(COc2ccccn2)sc1-c1csc(-c2cc(F)c3[nH]nnc3c2)n1 [Example 100]
5.31,5.80,–,–,Cc1nc(CNC(=O)C(C)(C)C)sc1-c1csc(-c2cc(F)c(O)c(F)c2)n1 [Example 196]
5.09,5.19,–,–,COC(=O)NCc1nc(C)c(-c2csc(-c3ccc(C(=O)Nc4nnn[nH]4)cc3)n2)s1 [Example 207]
6.60,5.92,–,–,Cc1nc(COc2ncccn2)sc1-c1cccc(-c2cc(F)c(O)c(F)c2F)c1 [Example 148]
6.31,6.00,–,–,Cc1nc(COc2ccccn2)sc1-c1csc(-c2cc(F)c(O)c(F)c2)n1 [Example 192]
7.15,6.70,–,–,Cc1cnc(OCc2nc(C)c(-c3cccc(-c4cc(F)c5nn[nH]c5c4)n3)s2)nc1C [Example 136]
6.26,6.17,–,–,Cc1nc(CNC(=O)c2cccnn2)sc1-c1cccc(-c2cc(F)c(O)c(F)c2F)n1 [Example 164]
5.16,5.74,–,–,Cc1nc(CNC(=O)N2CC(O)C2)sc1-c1csc(-c2cc(F)c(O)c(F)c2F)n1 [Example 97]
< 4.60,< 4.60,–,–,Cc1nc(COc2ncccn2)sc1-c1cccc(-c2cc[n+]([O-])cc2)n1 [Example 139]
6.40,5.51,–,–,Cc1nc(CNC(=O)C(C)(C)C)sc1-c1csc(-c2cc(F)c(O)c(F)c2)c1 [Example 197]
5.77,5.77,–,–,COC(=O)NCc1nc(C)c(-c2csc(-c3cc(F)c(O)cc3F)n2)s1 [Example 178]
7.60,7.60,–,–,Cc1nc(CNc2cccnn2)sc1-c1cccc(-c2cc(F)c3nn[nH]c3c2F)n1 [Example 95]
7.49,6.77,7.26,6.77,COC(=O)NCc1nc(C)c(-c2csc(-c3ccc(C(=O)NS(=O)(=O)c4ccccc4)cc3)n2)s1 [compound 13]

"pEC50 [1, 3]","pIC50 [2, 4]","pEC50 [1, 5]","pIC50 [2, 6]",SMILES
5.11,5.33,–,–,Cc1nc(COCC(=O)O)sc1-c1csc(-c2cc(F)c(O)c(F)c2F)n1 [Example 99]
6.10,6.52,–,–,Cc1nc(CNC(=O)C(C)(C)C)sc1-c1csc(-c2cc3nn[nH]c3cc2F)n1 [Example 181]
6.36,6.47,–,–,COC(=O)NCc1nc(C)c(-c2csc(-c3ccc(-c4nnn[nH]4)cc3)n2)s1 [Example 205]
6.72,6.29,6.72,6.29,Cc1nc(COc2ccccn2)sc1-c1csc(-c2cc(F)c(O)c(F)c2F)n1 [compound 11]
6.24,6.29,–,–,Cc1nc(COc2ncccn2)sc1-c1cccc(-c2ccc3nn[nH]c3c2)n1 [Example 131]
7.35,6.21,–,–,Cc1nc(COc2ccccn2)sc1-c1csc(-c2cc(F)c(O)c(F)c2F)c1 [Example 102]
6.62,6.55,–,–,Cc1nc(COc2ncccn2)sc1-c1cccc(-c2cc(F)c(O)c(F)c2F)n1 [Example 172]
4.80,5.51,–,–,COC(=O)NCc1nc(C)c(-c2csc(-c3ccc(C(=O)NS(C)(=O)=O)cc3)n2)s1 [Example 208]
7.52,–,–,–,Cc1nc(COc2ncc(Cl)cn2)sc1-c1cccc(-c2cc(F)c3nn[nH]c3c2)n1 [Example 140]
–,7.39,–,–,COC1CCN(C(=O)OCc2nc(C)c(-c3cccc(-c4cc(F)c5nn[nH]c5c4F)n3)s2)C1 (stereo not shown) [Example 39]
–,5.48,–,–,Cc1nc(C)c(-c2cccc(-c3ccc(C(=O)NS(=O)(=O)c4ccccc4)cc3)n2)s1 [Example 209]
7.26,–,7.26,–,Cc1nc(COc2cccnn2)sc1-c1csc(-c2cc(F)c3[nH]nnc3c2)n1 [compound 7]
–,6.66,–,–,Cc1nc(COc2ccccn2)sc1-c1csc(-c2cc(F)c(F)c(O)c2F)n1 [Example 55]
–,6.39,–,–,Cc1nc(COCC(C)(C)O)sc1-c1cccc(-c2cc(F)c(O)c(F)c2F)n1 [Example 218]
–,7.60,–,–,Cc1nc(COC(=O)N(C)C)sc1-c1nc(-c2cc(F)c3nn[nH]c3c2F)cs1 [Example 44]
–,7.10,–,–,Cc1nc(COc2ncccn2)sc1-c1ccnc(-c2cc(F)c(O)c(C#N)c2)n1 [Example 69]
–,5.82,–,–,Cc1nc(COc2ccccn2)sc1-c1cccc(-c2cc(O)c(C#N)c(F)c2)n1 [Example 120]
–,7.12,–,–,Cc1nc(COC(=O)N2CCC(N(C)C)C2)sc1-c1cccc(-c2cc(F)c3nn[nH]c3c2F)n1 (stereo not shown) [Example 32]
–,7.46,–,–,Cc1nc(COC(=O)N2CCC(C)(O)C2)sc1-c1cccc(-c2cc(F)c3[nH]nnc3c2F)n1 (stereo not shown) [Example 31]
–,6.36,–,–,Cc1nc(COC(=O)N2CCC(O)C2)sc1-c1csc(-c2cc(F)c3[nH]nnc3c2F)n1 (stereo not shown) [Example 75]
–,5.05,–,–,Cc1nc(CNC(=O)C2CCN(C)CC2)sc1-c1csc(-c2cc(F)c(O)c(F)c2F)n1 [Example 93]
–,7.60,–,–,Cc1nc(COC(=O)N2CCC(O)CC2)sc1-c1cccc(-c2cc(F)c3nn[nH]c3c2F)n1 [Example 47]
–,4.64,–,–,COC(=O)NCc1nc(C)c(-c2csc(-c3cnc(O)nc3)n2)s1 [Example 193]
–,< 4.60,–,–,COC(=O)NCc1nc(C)c(-c2csc(-c3cc(O)c(NS(C)(=O)=O)cc3F)n2)s1 [Example 183]

SMILES,"pEC50 [1, 3]","pIC50 [2, 4]","pEC50 [1, 5]","pIC50 [2, 6]"
Cc1nc(COC(=O)N(C)C)sc1-c1csc(-c2cc(F)c(O)c(F)c2F)n1 [Example 137],6.70,6.64,–,–
